In assay [1] the target is T1, ERK1 (Homo sapiens, UniProt P27361).
T1 construct: purchased Jubilant Biosys
The assay is described as follows: ERK1 HTRF (biochemical) assay. Conditions: HTRF. The protocol: ERK1 and ERK2 HTRF (Biochemical) Assays
These assays employed a homogeneous time resolved fluorescence (HTRF) technique. […] The plate was incubated at room temperature for 60 min with shaking. […] The IC50 values (half maximal inhibitory concentration values) were subsequently determined using a sigmoidal dose-response curve (variable slope) in GraphPad Prism® 5 software.
Background: Time-resolved FRET reads energy transfer from a long-lived donor to a nearby acceptor.

In assay [2] the target is T2, ERK2 (Homo sapiens, UniProt P28482).
T2 construct: purchased Jubilant Biosys
T2 sequence (P28482 whole entry): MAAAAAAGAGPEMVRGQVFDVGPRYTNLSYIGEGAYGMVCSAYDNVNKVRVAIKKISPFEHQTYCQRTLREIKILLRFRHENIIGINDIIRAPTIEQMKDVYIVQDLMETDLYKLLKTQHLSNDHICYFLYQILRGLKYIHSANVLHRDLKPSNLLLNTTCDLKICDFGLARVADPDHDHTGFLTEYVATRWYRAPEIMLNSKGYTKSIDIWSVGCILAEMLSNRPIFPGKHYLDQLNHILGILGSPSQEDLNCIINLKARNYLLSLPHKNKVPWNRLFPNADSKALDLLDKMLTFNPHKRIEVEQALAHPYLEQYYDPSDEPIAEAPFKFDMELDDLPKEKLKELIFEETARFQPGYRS
The assay is described as follows: ERK2 HTRF (biochemical) assay. Conditions: HTRF. In short, it runs like this:
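Readout was time-resolved FRET between europium anti-phospho-MBP and streptavidin-APC after a 60-min room-temperature kinase step. That step used ERK2 (25 nM in enzyme mix), biotinylated MBP peptide (1 uM) and ATP (24 uM) from the substrate mix, in pH 7.5 Tris buffer.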

The structures appear in SMILES notation. Where only a bound is given, the exact number is not on record here.

The results in this text go back to patent publication US9896445B2, “Heterocyclic inhibitors of ERK1 and ERK2 and their use in the treatment of cancer” (Asana Biosciences, LLC, priority 2015, dated 2018).

T1 sequence (P27361 whole entry): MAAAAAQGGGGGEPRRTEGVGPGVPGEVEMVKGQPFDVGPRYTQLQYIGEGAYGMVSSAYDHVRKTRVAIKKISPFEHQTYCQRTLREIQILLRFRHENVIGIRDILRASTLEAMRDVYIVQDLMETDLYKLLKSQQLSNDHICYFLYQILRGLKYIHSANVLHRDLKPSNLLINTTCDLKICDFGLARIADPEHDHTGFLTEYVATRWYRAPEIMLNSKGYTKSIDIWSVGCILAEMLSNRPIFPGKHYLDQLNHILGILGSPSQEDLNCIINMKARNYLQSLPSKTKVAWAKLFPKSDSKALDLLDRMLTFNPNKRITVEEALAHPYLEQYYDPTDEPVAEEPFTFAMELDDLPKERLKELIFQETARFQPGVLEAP

As a reminder, the IC50 is the concentration that inhibits the measured activity by half. For `Cc1cnc(N[C@H]2CCOC2)nc1-n1ccc(C(=O)N[C@H](CO)c2cccc(Cl)c2)c1` [Compound 161, N-((S)-1-(3-chlorophenyl)-2-hydroxyethyl)-1-(5-methyl-2-(((S)-tetrahydrofuran-3-yl)amino)pyrimidin-4-yl)-1H-pyrrole-3-carboxamide], the 50% inhibitory concentration (IC50) in assay [1] was below 50 nM; in assay [2] it was at most 50 nM.

Take `Cc1cnc(N[C@@H]2CCOC2)nc1-n1ccc(C(=O)N[C@H](CO)c2cccc(Cl)c2)c1` [Compound 162, N-((S)-1-(3-chlorophenyl)-2-hydroxyethyl)-1-(5-methyl-2-(((R)-tetrahydrofuran-3-yl)amino)pyrimidin-4-yl)-1H-pyrrole-3-carboxamide]: the values for the IC50 in assay [1] and in assay [2] were below 50 nM and at most 50 nM, respectively.

With `O=C(NC(CO)c1cccc(Cl)c1)c1cn(-c2ccnc(Nc3ccc4c(c3)CCO4)c2)cn1` (stereo not shown) [Compound 163, N-(1-(3-chlorophenyl)-2-hydroxyethyl)-1-(2-((2,3-dihydrobenzofuran-5-yl)amino)pyridin-4-yl)-1H-imidazole-4-carboxamide], the 50% inhibitory concentration (IC50) is below 50 nM in assay [1] and at most 50 nM in assay [2].

For the molecule `Cc1cnc(Nc2ccc(F)cc2)cc1-n1ccc(C(=O)NC(CN)c2ccc(F)c(Cl)c2)c1` (stereo not shown) [Compound 164, N-(2-amino-1-(3-chloro-4-fluoro-phenyl)ethyl)-1-(2-((4-fluorophenyl)-amino)-5-methyl-pyridin-4-yl)-1H-pyrrole-3-carboxamide], the IC50 was below 50 nM in assay [1] and at most 50 nM in assay [2].

As for `Cc1cnc(NC2CCOC2)cc1-n1ccc(C(=O)NC(CO)c2cccc(Cl)c2)c1` (stereo not shown) [Compound 165, N-(1-(3-chloro-phenyl)-2-hydroxyethyl)-1-(5-methyl-2-((tetrahydrofuran-3-yl)amino)pyridin-4-yl)-1H-pyrrole-3-carboxamide], the figures for the IC50 in assay [1] and in assay [2] were below 50 nM and at most 50 nM, respectively.

`Cc1cnc(Nc2ccc(F)cc2Cl)nc1-n1cnc(C(=O)NC(CO)c2cccc(Cl)c2)c1` (stereo not shown) [Compound 166, 1-(2-((2-chloro-4-fluorophenyl)amino)-5-methyl-pyrimidin-4-yl)-N-(1-(3-chlorophenyl)-2-hydroxyethyl)-1H-imidazole-4-carboxamide]: the IC50 is below 50 nM in assay [1] and at most 50 nM in assay [2].

As for `CC[C@H](CO)Nc1ncc(C)c(-n2ccc(C(=O)NC(CO)c3cccc(Cl)c3)c2)n1` (stereo partly drawn) [Compound 167, N-(1-(3-chloro-phenyl)-2-hydroxy-ethyl)-1-(2-(((R)-1-hydroxybutan-2-yl)amino)-5-methylpyrimidin-4-yl)-1H-pyrrole-3-carboxamide], the IC50 is below 50 nM in assay [1] and at most 50 nM in assay [2].

As for `CC[C@H](CO)Nc1cc(-n2cnc(C(=O)NC(CO)c3cccc(Cl)c3)c2)c(Cl)cn1` (stereo partly drawn) [Compound 168, 1-(5-chloro-2-(((R)-1-hydroxybutan-2-yl)amino)pyridin-4-yl)-N-(1-(3-chlorophenyl)-2-hydroxyethyl)-1H-imidazole-4-carboxamide], the values for the concentration for half-maximal inhibition (IC50) in assay [1] and in assay [2] were below 50 nM and 50 to 100 nM, respectively.

For `Cc1cnc(Nc2ccc(F)cc2Cl)nc1-n1ccc(C(=O)NC(CN)c2cccc(Cl)c2)c1` (stereo not shown) [Compound 169, N-(2-amino-1-(3-chlorophenyl)ethyl)-1-(2-((2-chloro-4-fluorophenyl)amino)-5-methyl-pyrimidin-4-yl)-1H-pyrrole-3-carboxamide], the IC50 in assay [1] and in assay [2] was 50 to 100 nM in each case.

For the molecule `O=C(N[C@H](CO)c1cccc(Cl)c1)c1cn(-c2ccnc(NC3CCOC3)c2)cn1` (stereo partly drawn) [Compound 170, N-((S)-1-(3-chlorophenyl)-2-hydroxyethyl)-1-(2-((tetrahydrofuran-3-yl)amino)pyridin-4-yl)-1H-imidazole-4-carboxamide], the figures for the concentration for half-maximal inhibition (IC50) in assay [1] and in assay [2] were below 50 nM and at most 50 nM, respectively.

Consider `Cc1cnc(Nc2cccnc2)cc1-n1ccc(C(=O)NC(CO)c2ccc(F)c(Cl)c2)c1` (stereo not shown) [Compound 171, N-(1-(3-chloro-4-fluorophenyl)-2-hydroxyethyl)-1-(5-methyl-2-(pyridin-3-ylamino)pyridin-4-yl)-1H-pyrrole-3-carboxamide], for which the concentration for half-maximal inhibition (IC50) in assay [1] is below 50 nM; in assay [2], at most 50 nM.
